From patent US7452887B2, “Quinoline- and isoquinoline-based compounds exhibiting ATP-utilizing enzyme inhibitory activity, and compositions, and uses thereof” (Amphora Discovery Corporation, priority 2004, dated 2008)

Legend:
Assay in all cases: HTS ATP-utilizing enzyme assay, off-chip mobility-shift (Caliper HTS 250)
Type in all cases: biochemical
Conditions in all cases: test compound 10 μM, kinase listed = active (greater than six-sigma from the mean activity of inactive compounds)
NEK2 = biological target: T1, NEK2 (Homo sapiens, UniProt P51955)
T1 sequence (P51955 1-445): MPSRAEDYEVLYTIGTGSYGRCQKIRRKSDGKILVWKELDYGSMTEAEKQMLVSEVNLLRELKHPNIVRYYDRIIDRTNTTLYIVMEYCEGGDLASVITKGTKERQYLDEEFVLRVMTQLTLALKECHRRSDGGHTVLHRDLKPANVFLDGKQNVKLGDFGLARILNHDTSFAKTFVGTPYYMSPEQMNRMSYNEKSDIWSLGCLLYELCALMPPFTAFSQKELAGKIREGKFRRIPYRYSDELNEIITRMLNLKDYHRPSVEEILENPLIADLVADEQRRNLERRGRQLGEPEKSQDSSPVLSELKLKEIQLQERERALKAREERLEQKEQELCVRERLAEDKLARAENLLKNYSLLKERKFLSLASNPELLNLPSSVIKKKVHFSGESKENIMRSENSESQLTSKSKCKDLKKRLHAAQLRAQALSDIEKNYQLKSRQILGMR
Summary of the method: (§1)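 Compounds were tested once at 10 μM against kinase with peptide substrate. After 2.5 hrs at 20° C. to 22° C., reactions were terminated with EDTA, and conversion was read as substrate/product ratio by mobility shift.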

CHEK2 = CHEK2 (Homo sapiens, UniProt O96017)
CHEK2, sequence (O96017 whole entry): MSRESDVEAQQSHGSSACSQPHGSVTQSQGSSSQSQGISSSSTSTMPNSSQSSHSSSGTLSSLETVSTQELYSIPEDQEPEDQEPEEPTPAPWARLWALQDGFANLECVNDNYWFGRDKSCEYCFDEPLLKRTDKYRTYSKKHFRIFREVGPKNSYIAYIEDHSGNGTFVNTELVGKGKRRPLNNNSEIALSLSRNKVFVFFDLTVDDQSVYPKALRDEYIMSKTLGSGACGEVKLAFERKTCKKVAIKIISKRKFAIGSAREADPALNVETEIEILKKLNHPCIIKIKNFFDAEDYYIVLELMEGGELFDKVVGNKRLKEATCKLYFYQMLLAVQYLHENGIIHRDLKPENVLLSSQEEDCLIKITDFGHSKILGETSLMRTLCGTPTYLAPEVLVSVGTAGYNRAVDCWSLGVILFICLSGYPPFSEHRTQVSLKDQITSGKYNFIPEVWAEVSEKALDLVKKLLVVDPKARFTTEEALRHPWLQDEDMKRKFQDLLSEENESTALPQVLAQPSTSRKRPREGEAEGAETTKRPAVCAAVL
Summary of the method: as §1

C-TAK1 = C-TAK1 (Homo sapiens, UniProt P27448)
C-TAK1, sequence (P27448 whole entry): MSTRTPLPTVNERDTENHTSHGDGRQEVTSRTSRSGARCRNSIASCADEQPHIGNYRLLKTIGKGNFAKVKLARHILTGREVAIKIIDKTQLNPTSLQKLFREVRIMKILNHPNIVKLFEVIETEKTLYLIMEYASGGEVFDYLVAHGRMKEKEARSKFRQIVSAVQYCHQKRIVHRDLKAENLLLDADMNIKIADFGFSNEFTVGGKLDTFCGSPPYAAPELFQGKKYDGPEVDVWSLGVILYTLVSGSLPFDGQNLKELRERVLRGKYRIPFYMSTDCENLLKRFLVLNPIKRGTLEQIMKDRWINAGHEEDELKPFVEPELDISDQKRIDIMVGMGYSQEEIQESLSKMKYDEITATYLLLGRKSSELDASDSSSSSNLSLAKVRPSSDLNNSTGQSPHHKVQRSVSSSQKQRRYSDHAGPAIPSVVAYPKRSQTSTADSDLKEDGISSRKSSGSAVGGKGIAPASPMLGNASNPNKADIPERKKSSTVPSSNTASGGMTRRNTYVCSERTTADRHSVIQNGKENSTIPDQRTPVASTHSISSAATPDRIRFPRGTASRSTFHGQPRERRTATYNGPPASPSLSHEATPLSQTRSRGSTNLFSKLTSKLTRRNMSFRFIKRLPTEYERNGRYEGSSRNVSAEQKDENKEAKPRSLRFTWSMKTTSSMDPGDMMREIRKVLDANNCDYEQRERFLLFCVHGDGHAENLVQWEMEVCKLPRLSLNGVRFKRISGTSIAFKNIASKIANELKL
Summary of the method: as §1

KIT = KIT (Homo sapiens, UniProt P10721)
KIT, sequence (P10721 26-976): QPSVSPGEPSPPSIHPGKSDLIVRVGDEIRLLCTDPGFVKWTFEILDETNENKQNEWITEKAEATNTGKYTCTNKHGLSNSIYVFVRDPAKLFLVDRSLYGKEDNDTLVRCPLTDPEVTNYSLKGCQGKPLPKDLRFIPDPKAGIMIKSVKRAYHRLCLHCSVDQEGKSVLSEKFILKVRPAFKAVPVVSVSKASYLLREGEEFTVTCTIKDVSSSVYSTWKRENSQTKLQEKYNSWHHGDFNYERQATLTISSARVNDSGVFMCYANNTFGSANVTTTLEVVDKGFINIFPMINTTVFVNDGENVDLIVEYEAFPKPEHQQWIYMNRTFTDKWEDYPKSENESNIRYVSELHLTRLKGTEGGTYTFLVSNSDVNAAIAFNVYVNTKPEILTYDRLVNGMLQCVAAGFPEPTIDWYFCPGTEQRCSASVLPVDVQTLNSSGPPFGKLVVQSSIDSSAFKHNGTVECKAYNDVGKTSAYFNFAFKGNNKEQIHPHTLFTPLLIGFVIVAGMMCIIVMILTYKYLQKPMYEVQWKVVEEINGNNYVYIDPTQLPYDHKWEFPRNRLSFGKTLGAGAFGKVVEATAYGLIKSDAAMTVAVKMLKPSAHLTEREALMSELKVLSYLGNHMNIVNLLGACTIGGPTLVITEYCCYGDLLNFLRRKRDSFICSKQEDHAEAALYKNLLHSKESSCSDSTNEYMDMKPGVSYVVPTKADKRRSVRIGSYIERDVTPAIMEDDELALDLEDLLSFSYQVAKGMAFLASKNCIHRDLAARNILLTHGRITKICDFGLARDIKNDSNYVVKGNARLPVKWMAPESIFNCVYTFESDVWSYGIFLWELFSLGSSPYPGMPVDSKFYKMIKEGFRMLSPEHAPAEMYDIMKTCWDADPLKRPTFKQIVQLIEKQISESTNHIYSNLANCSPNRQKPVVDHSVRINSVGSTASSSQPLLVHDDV
Summary of the method: as §1

BMX = biological target: T2, BMX (Homo sapiens, UniProt P51813)
T2 sequence (P51813 1-675): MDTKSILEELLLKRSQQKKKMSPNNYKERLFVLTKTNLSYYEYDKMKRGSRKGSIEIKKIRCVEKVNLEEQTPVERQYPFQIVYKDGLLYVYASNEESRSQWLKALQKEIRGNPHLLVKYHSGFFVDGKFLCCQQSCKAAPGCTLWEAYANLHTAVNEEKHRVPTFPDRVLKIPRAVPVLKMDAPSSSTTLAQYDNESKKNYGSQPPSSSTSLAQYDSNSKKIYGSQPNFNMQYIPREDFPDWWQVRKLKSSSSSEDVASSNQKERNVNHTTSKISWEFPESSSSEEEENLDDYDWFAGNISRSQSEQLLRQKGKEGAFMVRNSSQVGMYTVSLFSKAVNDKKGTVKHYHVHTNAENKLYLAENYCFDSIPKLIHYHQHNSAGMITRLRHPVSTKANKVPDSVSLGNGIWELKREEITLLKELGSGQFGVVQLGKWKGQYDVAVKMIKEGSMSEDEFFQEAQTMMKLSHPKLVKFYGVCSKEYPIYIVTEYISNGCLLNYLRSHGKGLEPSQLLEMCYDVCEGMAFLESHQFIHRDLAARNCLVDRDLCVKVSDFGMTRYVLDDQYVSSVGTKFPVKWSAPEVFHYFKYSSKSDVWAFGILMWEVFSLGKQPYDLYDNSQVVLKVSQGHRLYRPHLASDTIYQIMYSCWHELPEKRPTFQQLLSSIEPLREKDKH
Summary of the method: as §1

PDGFR-α = PDGFR-α (Homo sapiens, UniProt P16234)
PDGFR-α, sequence (P16234 24-1089): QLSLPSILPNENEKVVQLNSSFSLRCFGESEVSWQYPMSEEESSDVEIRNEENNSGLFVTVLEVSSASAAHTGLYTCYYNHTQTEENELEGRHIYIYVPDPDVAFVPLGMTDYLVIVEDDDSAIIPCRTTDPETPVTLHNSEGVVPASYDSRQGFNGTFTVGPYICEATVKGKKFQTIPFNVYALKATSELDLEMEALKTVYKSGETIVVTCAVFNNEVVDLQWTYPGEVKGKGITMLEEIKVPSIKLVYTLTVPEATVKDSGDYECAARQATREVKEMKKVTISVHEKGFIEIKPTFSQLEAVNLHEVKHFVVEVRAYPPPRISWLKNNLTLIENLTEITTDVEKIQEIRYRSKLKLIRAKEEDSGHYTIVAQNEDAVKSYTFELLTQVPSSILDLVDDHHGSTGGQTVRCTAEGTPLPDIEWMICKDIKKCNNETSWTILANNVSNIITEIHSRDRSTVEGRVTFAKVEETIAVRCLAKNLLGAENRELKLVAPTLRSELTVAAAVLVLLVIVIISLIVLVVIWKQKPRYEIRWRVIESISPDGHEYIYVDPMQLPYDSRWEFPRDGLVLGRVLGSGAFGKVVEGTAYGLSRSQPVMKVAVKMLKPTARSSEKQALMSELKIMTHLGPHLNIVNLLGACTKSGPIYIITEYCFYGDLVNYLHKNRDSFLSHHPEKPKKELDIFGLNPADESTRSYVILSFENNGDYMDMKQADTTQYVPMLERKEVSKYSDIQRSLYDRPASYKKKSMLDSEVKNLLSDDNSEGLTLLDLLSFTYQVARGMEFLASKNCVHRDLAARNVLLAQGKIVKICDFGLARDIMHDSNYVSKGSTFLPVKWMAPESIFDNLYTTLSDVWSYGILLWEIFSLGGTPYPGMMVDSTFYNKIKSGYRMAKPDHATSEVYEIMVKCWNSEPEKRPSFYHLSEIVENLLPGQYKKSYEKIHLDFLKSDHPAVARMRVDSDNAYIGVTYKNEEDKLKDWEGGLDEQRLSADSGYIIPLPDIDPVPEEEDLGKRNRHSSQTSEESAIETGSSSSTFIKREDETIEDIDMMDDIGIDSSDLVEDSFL
Summary of the method: as §1

GSK3-α = GSK3-α (Homo sapiens, UniProt P49840)
GSK3-α, sequence (P49840 whole entry): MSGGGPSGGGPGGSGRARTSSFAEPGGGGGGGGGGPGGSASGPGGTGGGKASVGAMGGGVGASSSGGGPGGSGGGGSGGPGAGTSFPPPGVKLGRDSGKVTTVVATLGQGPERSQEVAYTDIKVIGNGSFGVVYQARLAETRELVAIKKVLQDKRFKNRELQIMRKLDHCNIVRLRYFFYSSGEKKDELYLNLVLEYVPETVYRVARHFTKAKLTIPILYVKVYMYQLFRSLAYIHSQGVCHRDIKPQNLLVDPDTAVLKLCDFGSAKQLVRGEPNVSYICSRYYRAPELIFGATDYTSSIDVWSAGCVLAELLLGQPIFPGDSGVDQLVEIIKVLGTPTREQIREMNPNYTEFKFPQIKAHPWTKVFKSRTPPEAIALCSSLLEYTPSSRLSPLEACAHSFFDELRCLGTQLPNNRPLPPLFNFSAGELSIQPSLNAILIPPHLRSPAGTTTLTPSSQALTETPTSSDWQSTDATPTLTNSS
Summary of the method: as §1

| Structure (SMILES) | Activity (NEK2) | Activity (CHEK2) | Activity (C-TAK1) | Activity (KIT) | Activity (BMX) | Activity (PDGFR-α) | Activity (GSK3-α) |
| --- | --- | --- | --- | --- | --- | --- | --- |
| c1ccc(-c2ccc3nccc(Nc4ccc(N5CCNCC5)cc4)c3c2)cc1 [6-phenyl-N-(4-(piperazin-1-yl)phenyl)quinolin-4-amine] |  |  |  | KIT |  | PDGFR-α |  |
| CN1CCN(c2ccc(Nc3ccnc4ccc(-c5ccc(F)cc5)cc34)cc2)CC1 [6-(4-fluorophenyl)-N-(4-(4-methylpiperazin-1-yl)phenyl)quinolin-4-amine] | NEK2 |  | C-TAK1 |  |  |  | GSK3-α |
| COc1ccc(-c2ccc3nccc(N(C)c4ccc(N5CCN(C)CC5)cc4)c3c2)cc1 [6-(4-methoxyphenyl)-N-methyl-N-(4-(4-methylpiperazin-1-yl)phenyl)quinolin-4-amine] |  |  |  | KIT | BMX | PDGFR-α |  |
| COc1ccc(-c2ccc3nccc(Nc4ccc(N5CCNCC5)cc4)c3c2)cc1 [6-(4-methoxyphenyl)-N-(4-(piperazin-1-yl)phenyl)quinolin-4-amine] |  |  |  | KIT |  |  |  |

Continued, values first:

| Activity (NEK2) | Activity (CHEK2) | Activity (C-TAK1) | Activity (KIT) | Activity (BMX) | Activity (PDGFR-α) | Activity (GSK3-α) | Structure (SMILES) |
| --- | --- | --- | --- | --- | --- | --- | --- |
| NEK2 | CHEK2 | C-TAK1 | KIT | BMX |  |  | CN1CCN(c2ccc(Nc3ccnc4ccc(-c5cccc6ccccc56)cc34)cc2)CC1 [N-(4-(4-methylpiperazin-1-yl)phenyl)-6-(naphthalen-1-yl)quinolin-4-amine] |
| NEK2 |  |  | KIT |  |  | GSK-3-α | CN1CCN(c2ccc(Nc3ccnc4ccc(-c5ccncc5)cc34)cc2)CC1 [N-(4-(4-methylpiperazin-1-yl)phenyl)-6-(pyridin-4-yl)quinolin-4-amine] |
| NEK2 |  |  |  | BMX |  |  | Cc1ccccc1-c1ccc2nccc(Nc3ccc(N4CCN(C)CC4)cc3)c2c1 [N-(4-(4-methylpiperazin-1-yl)phenyl)-6-o-tolylquinolin-4-amine] |
| NEK2 | CHEK2 | C-TAK1 |  | BMX |  |  | CN1CCN(c2ccc(Nc3ccnc4ccc(-c5ccc6ccccc6c5)cc34)cc2)CC1 [N-(4-(4-methylpiperazin-1-yl)phenyl)-6-(naphthalen-2-yl)quinolin-4-amine] |
